Seven molecules from PubChem BioAssay (NCI) can be followed below.

For orientation: TGI means the concentration giving total growth inhibition. A lower TGI goes with more potent growth arrest.

SMILES strings stand for the structures.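 These data come from cells grown in 96-well plates and exposed to compound for 48 hours at five concentrations. Definition used: TGI = concentration required for complete inhibition of growth.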

Test systems include K-562 leukemia; MDA-MB-231 breast; UACC-257 melanoma; NCI-H460 lung; RXF 393 renal; HOP-92 NSCLC; NCI/ADR-RES ovarian; MDA-N; LOX IMVI melanoma; OVCAR-3 ovarian; NCI-H226 lung; SF-539 CNS; SF-295 CNS; HOP-62 NSCLC; 786-0 renal; KM12 colon; HS 578T breast; UO-31 renal; SNB-19 CNS; A498 renal.
Experiment in all cases: DTP human tumour cell line panel, 48 h

As to `COc1cc(-c2nc3ccccn3c2/N=C/c2cc(Br)cc(Br)c2O)ccc1O`, the TGI in the experiment on K-562 leukemia was above 100 µM; in the experiment on MDA-MB-231 breast, 36.3 µM; in the experiment with UACC-257 melanoma, 75.2 µM; in the experiment on NCI-H460 lung, above 100 µM; with RXF 393 renal, above 100 µM; in the experiment with HOP-92 NSCLC, 50.8 µM. The total growth inhibition concentration (TGI) is 64.5 µM in the experiment with NCI/ADR-RES ovarian; 59 µM with MDA-N; 64.9 µM in the experiment on LOX IMVI melanoma; 39 µM with OVCAR-3 ovarian; 70.9 µM with NCI-H226 lung; 90.2 µM in the experiment with SF-539 CNS. The TGI turned out to be 50 µM in the experiment on SF-295 CNS; 52.5 µM in the experiment with HOP-62 NSCLC; 35.5 µM with 786-0 renal; 67.2 µM in the experiment with KM12 colon; 83.8 µM in the experiment with HS 578T breast; 30.6 µM with UO-31 renal. Further, the TGI with SNB-19 CNS is 75.6 µM.
`CC1(C)OC(=O)N(c2ccccc2)C12C=Cc1cc([N+](=O)[O-])ccc1O2` (stereo unspecified): the TGI is above 100 µM in the experiment on K-562 leukemia; 80.4 µM in the experiment on MDA-MB-231 breast; 77 µM with UACC-257 melanoma; above 100 µM with NCI-H460 lung; above 100 µM in the experiment with RXF 393 renal; 86.9 µM in the experiment with HOP-92 NSCLC. Also, the TGI was above 100 µM with A498 renal; above 100 µM in the experiment with NCI/ADR-RES ovarian; 50.8 µM in the experiment with MDA-N; above 100 µM in the experiment on LOX IMVI melanoma; above 100 µM in the experiment with OVCAR-3 ovarian; above 100 µM with NCI-H226 lung. Moreover, the TGI in the experiment on SF-295 CNS, with HOP-62 NSCLC, with 786-0 renal, in the experiment on KM12 colon, with HS 578T breast and with UO-31 renal was above 100 µM in each case. In the experiment on SNB-19 CNS, this molecule gave a TGI above 100 µM.
Take `O=c1c2ccccc2nc(Cc2nc(-c3ccc(Cl)cc3)cs2)n1-c1ccc(Cl)cc1`: the TGI in the experiment with K-562 leukemia, in the experiment with MDA-MB-231 breast, in the experiment on UACC-257 melanoma, in the experiment with NCI-H460 lung, with RXF 393 renal and in the experiment on HOP-92 NSCLC was above 100 µM in each case. Moreover, the TGI in the experiment with A498 renal, with NCI/ADR-RES ovarian, in the experiment with MDA-N, with LOX IMVI melanoma, in the experiment on OVCAR-3 ovarian and in the experiment with NCI-H226 lung was above 100 µM in each case. The TGI in the experiment with SF-295 CNS, in the experiment with HOP-62 NSCLC, in the experiment on 786-0 renal, in the experiment on KM12 colon, in the experiment with HS 578T breast and in the experiment on UO-31 renal was above 100 µM each time. The TGI with SNB-19 CNS was above 100 µM.
For `Clc1ccc(-c2cc3nc4ccccc4nc3o2)cc1`, the TGI is above 100 µM in the experiment on K-562 leukemia; above 100 µM with MDA-MB-231 breast; above 100 µM with UACC-257 melanoma; above 100 µM in the experiment on NCI-H460 lung; 90 µM in the experiment with RXF 393 renal; above 100 µM in the experiment on HOP-92 NSCLC. For the same molecule, the TGI with A498 renal, with NCI/ADR-RES ovarian, in the experiment with MDA-N, in the experiment on LOX IMVI melanoma, with OVCAR-3 ovarian and in the experiment on NCI-H226 lung was above 100 µM throughout. Moreover, the TGI in the experiment with SF-539 CNS, in the experiment with SF-295 CNS, in the experiment with 786-0 renal, with KM12 colon, in the experiment on HS 578T breast and in the experiment on UO-31 renal was above 100 µM each time. The TGI with SNB-19 CNS is above 100 µM.
For the molecule `CCO/C=N\C1=C(C#N)SC2=N/C(=C\c3ccc(OC)cc3)C(=O)N21`, the TGI with K-562 leukemia, with MDA-MB-231 breast, with UACC-257 melanoma, with RXF 393 renal, with HOP-92 NSCLC and in the experiment with A498 renal was above 100 µM each time. The TGI in the experiment with NCI/ADR-RES ovarian, with MDA-N, in the experiment with LOX IMVI melanoma, with NCI-H226 lung, with SF-539 CNS and with SF-295 CNS was above 100 µM each time. Besides, the TGI with 786-0 renal, in the experiment on KM12 colon, in the experiment with HS 578T breast, in the experiment on UO-31 renal and with SNB-19 CNS was above 100 µM throughout.
Consider `CN(C)CCCN=c1c2ccccc2n(O)c2ccccc12`, for which the TGI with K-562 leukemia, in the experiment with MDA-MB-231 breast, in the experiment with UACC-257 melanoma, in the experiment with NCI-H460 lung, in the experiment on RXF 393 renal and in the experiment with HOP-92 NSCLC was above 100 µM each time. Also, the TGI is above 100 µM with A498 renal; above 100 µM in the experiment with NCI/ADR-RES ovarian; above 100 µM with MDA-N; above 100 µM in the experiment with LOX IMVI melanoma; above 100 µM in the experiment with OVCAR-3 ovarian; 72.7 µM with NCI-H226 lung. Also, the TGI in the experiment with SF-539 CNS, in the experiment with SF-295 CNS, with HOP-62 NSCLC, with 786-0 renal, in the experiment with KM12 colon and in the experiment on HS 578T breast was above 100 µM each time. Also, the TGI in the experiment on UO-31 renal is above 100 µM.
Regarding `CC1(C)/C(=C/N=O)N(O)C(C)(C)N1O`, the TGI in the experiment on K-562 leukemia, with MDA-MB-231 breast, in the experiment with UACC-257 melanoma, with NCI-H460 lung, in the experiment on RXF 393 renal and in the experiment on HOP-92 NSCLC was above 100 µM each time. Further, the TGI in the experiment with NCI/ADR-RES ovarian, in the experiment with MDA-N, in the experiment on LOX IMVI melanoma, with OVCAR-3 ovarian, in the experiment on NCI-H226 lung and in the experiment on SF-539 CNS was above 100 µM each time. Moreover, the TGI with SF-295 CNS, in the experiment with HOP-62 NSCLC, in the experiment on 786-0 renal, in the experiment on KM12 colon, with HS 578T breast and with UO-31 renal was above 100 µM throughout. The same molecule gave a TGI in the experiment with SNB-19 CNS above 100 µM.
